# Results: the NIST ThermoML archive (doi:10.1021/je400493x)
# Numbers after ± are expanded uncertainties.
# Tests used:
# [1] = 298.15 K, Liquid mixture 1, Drop volume
# [2] = 298.15 K; 100 kPa; Liquid
# [3] = xn = mol fraction of the nth substance listed; details: 298.15 K, 100 kPa, Liquid
smiles,measurement,setting,value
CC(C)CCOP(=O)(OCCC(C)C)OCCC(C)C [triisopentyl phosphate] + O,interfacial tension,[1]; 101 kPa,14.4 ± 0.8 mN/m
CCCCCCCCCCCC [dodecane] + O,interfacial tension,[1]; 100 kPa,52.6 ± 0.8 mN/m
CC(C)CCOP(=O)(OCCC(C)C)OCCC(C)C [triisopentyl phosphate],mass density,[2],946.95 ± 1.8 kg/m3
same,viscosity,[2],4.267 ± 0.076 mPa·s
CCCCCCCCCCCC [dodecane] + CC(C)CCOP(=O)(OCCC(C)C)OCCC(C)C,mass density,[3]; x2 = 0,745.29 ± 4.2 kg/m3
same,viscosity,[3]; x2 = 0,1.347 ± 0.033 mPa·s
CCCCCCCCCCCC [dodecane],mass density,[2],745.29 ± 4.2 kg/m3
same,viscosity,[2],1.347 ± 0.033 mPa·s
CC(C)CCOP(=O)(OCCC(C)C)OCCC(C)C [triisopentyl phosphate] + CCCCCCCCCCCC,mass density,[3]; x1 = 0.0999,765.49 ± 4 kg/m3
same,viscosity,[3]; x1 = 0.0999,1.488 ± 0.035 mPa·s
same,mass density,[3]; x1 = 0.1998,785.78 ± 3.7 kg/m3
same,viscosity,[3]; x1 = 0.1998,1.678 ± 0.037 mPa·s
same,mass density,[3]; x1 = 0.3001,805.91 ± 3.5 kg/m3
same,viscosity,[3]; x1 = 0.3001,1.896 ± 0.04 mPa·s
same,mass density,[3]; x1 = 0.4002,826.05 ± 3.2 kg/m3
same,viscosity,[3]; x1 = 0.4002,2.119 ± 0.043 mPa·s
same,mass density,[3]; x1 = 0.5001,846.25 ± 3 kg/m3
same,viscosity,[3]; x1 = 0.5001,2.391 ± 0.047 mPa·s
same,mass density,[3]; x1 = 0.5999,866.75 ± 2.7 kg/m3
same,viscosity,[3]; x1 = 0.5999,2.674 ± 0.051 mPa·s
same,mass density,[3]; x1 = 0.7002,888.26 ± 2.5 kg/m3
same,viscosity,[3]; x1 = 0.7002,3.015 ± 0.056 mPa·s
same,mass density,[3]; x1 = 0.7998,909.12 ± 2.2 kg/m3
same,viscosity,[3]; x1 = 0.7998,3.375 ± 0.062 mPa·s
same,mass density,[3]; x1 = 0.9001,929.41 ± 2 kg/m3
same,viscosity,[3]; x1 = 0.9001,3.804 ± 0.068 mPa·s
same,mass density,[3]; x1 = 1,946.95 ± 1.8 kg/m3
same,viscosity,[3]; x1 = 1,4.267 ± 0.076 mPa·s
